According to publication PMC8697972, “New Auranofin Analogs with Antibacterial Properties against Burkholderia Clinical Isolates” (Antibiotics, 2021):
Converted amounts (≈) assume the structure as drawn. Where two headings read alike, the source gives them in different places.

Legend:
B. multivorans ATCC17616 = type: cell-based, Burkholderia multivorans
[1] = tested on: B. contaminans FFH-2050MA; type: cell-based, Burkholderia contaminans
B. ubonensis LMG 20358 = type: cell-based, Burkholderia ubonensis
B. lata BCC6 = type: cell-based, Burkholderia lata
B. contaminans FFH-4004 = type: cell-based, Burkholderia contaminans
B. dolosa CEP021 = type: cell-based, Burkholderia dolosa
B. contaminans MF16 = type: cell-based, Burkholderia contaminans
B. cenocepacia 140485 = type: cell-based, Burkholderia cenocepacia
B. cenocepacia K56-2 [2] = type: cell-based, Burkholderia cenocepacia; conditions: 18 h
[3] = tested on: Burkholderia cenocepacia K56-2; assay: Time kill assays (exponential and stationary phase); conditions: time kill, 1×, 2×, 4× MIC (DOX 4× MIC), 6 h
members of the Bcc = assay: MIC, summary over Bcc panel; type: cell-based, Burkholderia cepacia complex
[4] = tested on: Galleria mellonella larvae; assay: Galleria toxicity
C. elegans DH26 = conditions: for Percent survival of C. elegans: 24 h; for Survival100/MIC Ratio: highest concentration with 100 percent survival divided by the compound's MIC
B. cenocepacia K56-2 [5] = assay: Persister frequency assay; conditions: 24 h
[6] = B. cenocepacia K56-2, CAMHB, 37 °C
[7] = Burkholderia multivorans, ATCC17616
[8] = Burkholderia contaminans, FFH2050MA
[9] = Burkholderia ubonensis, LMG20358
[10] = Burkholderia contaminans, FFH4004
[11] = Burkholderia cenocepacia, 140485

Q: With CC[P+](CC)(CC)[Au-][S]C1OC(CO)C(O)C(O)C1O (mixture of isomers) [WB-16-EO9899] as the compound, how does the MIC (B. multivorans ATCC17616; B. multivorans ATCC17616) read?
A: 128 µg/mL

Q: And the MIC ([1]; B. contaminans FFH-2050MA)?
A: 128 µg/mL

Q: And the MIC (B. ubonensis LMG 20358; B. ubonensis LMG 20358)?
A: > 128 µg/mL

Q: And the MIC (B. lata BCC6; B. lata BCC6)?
A: 128 µg/mL

Q: What about the MIC (B. contaminans FFH-4004; B. contaminans FFH-4004) of the same compound?
A: > 128 µg/mL

Q: What about the MIC (B. dolosa CEP021; B. dolosa CEP021) of the same compound?
A: > 128 µg/mL

Q: And the MIC (B. contaminans MF16; B. contaminans MF16)?
A: 128 µg/mL

Q: And the MIC (B. cenocepacia 140485; B. cenocepacia 140485)?
A: 32 µg/mL

Q: And the MIC (B. cenocepacia K56-2 [2]; [6])?
A: > 128 µg/mL

Q: How did the MIC (B. multivorans ATCC17616; B. multivorans ATCC17616) turn out when C[P+](C)(C)[Au-][S]CC(O)CO (racemic) [WB-19-HL4171] was run?
A: 32 µg/mL

Q: And the MIC ([1]; B. contaminans FFH-2050MA)?
A: 32 µg/mL

Q: What about the MIC (B. ubonensis LMG 20358; B. ubonensis LMG 20358) of the same compound?
A: >128 µg/mL

Q: And the MIC (B. lata BCC6; B. lata BCC6)?
A: 32 µg/mL

Q: And the MIC (B. contaminans FFH-4004; B. contaminans FFH-4004)?
A: 32 µg/mL

Q: And the MIC (B. dolosa CEP021; B. dolosa CEP021)?
A: 64 µg/mL

Q: What about the MIC (B. contaminans MF16; B. contaminans MF16) of the same compound?
A: 64 µg/mL

Q: What about the MIC (B. cenocepacia 140485; B. cenocepacia 140485) of the same compound?
A: 16 µg/mL

Q: And the MIC (B. cenocepacia K56-2 [2]; [6])?
A: 32 µg/mL

Q: What does the source list for CC(C)(O/N=C(\C(=O)N[C@@H]1C(=O)N2C(C(=O)[O-])=C(C[n+]3ccccc3)CS[C@H]12)c1csc(N)n1)C(=O)O [CAZ, ceftazidime, reference compound]?
A: MIC (B. multivorans ATCC17616; [7]): 16 µg/mL (≈ 29.3 µM); MIC [1, 8]: 8 µg/mL (≈ 14.6 µM); MIC (B. ubonensis LMG 20358; [9]): 16 µg/mL (≈ 29.3 µM); MIC (B. lata BCC6; Burkholderia lata, BCC6): 64 µg/mL (≈ 117 µM); MIC (B. contaminans FFH-4004; [10]): 8 µg/mL (≈ 14.6 µM); MIC (B. dolosa CEP021; Burkholderia dolosa, CEP021): 16 µg/mL (≈ 29.3 µM); MIC (B. contaminans MF16; Burkholderia contaminans, MF16): 32 µg/mL (≈ 58.5 µM); MIC (B. cenocepacia 140485; [11]): 8 µg/mL (≈ 14.6 µM); MIC (B. cenocepacia K56-2 [2]; Burkholderia cenocepacia): 32 µg/mL (≈ 58.5 µM)

Q: For C[C@H]1c2cccc(O)c2C(=O)C2=C(O)[C@]3(O)C(=O)C(C(N)=O)=C(O)[C@@H](N(C)C)[C@@H]3[C@@H](O)[C@@H]21 [DOX, doxycycline, reference compound], which MIC (B. multivorans ATCC17616; [7]) is on record?
A: 2 µg/mL (≈ 4.5 µM)

Q: And the “killing of stationary (non-replicating) phase cells” value [3]?
A: unable to kill cells

Q: And the MIC [1, 8]?
A: 2 µg/mL (≈ 4.5 µM)

Q: And the MIC (B. ubonensis LMG 20358; [9])?
A: 4 µg/mL (≈ 9 µM)

Q: What about the MIC (B. lata BCC6; Burkholderia lata, BCC6) of the same compound?
A: 4 µg/mL (≈ 9 µM)

Q: What about the MIC (members of the Bcc; Burkholderia cepacia, read-out: MIC values against some isolates from the Bcc, lowest values, some isolates) of the same compound?
A: 1 µg/mL (≈ 2.25 µM)

Q: What about the “MIC values against some isolates from the Bcc” value (members of the Bcc; lowest values, some isolates) of the same compound?
A: 2 µg/mL (≈ 4.5 µM)

Q: What about the “Galleria Survival” value ([4]; 1.0 mg/kg, 24 h) of the same compound?
A: 96.7%

Q: And the “Galleria Survival” value ([4]; 1.0 mg/kg, 48 h)?
A: 96.7%

Q: And the “Galleria Survival” value ([4]; 1.0 mg/kg, 72 h)?
A: 96.7%

Q: What about the “Galleria Survival” value ([4]; 2.0 mg/kg, 24 h) of the same compound?
A: 93.3%

Q: What about the “Galleria Survival” value ([4]; 2.0 mg/kg, 48 h) of the same compound?
A: 93.3%

Q: What about the “Galleria Survival” value ([4]; 2.0 mg/kg, 72 h) of the same compound?
A: 93.3%

Q: What about the “Galleria Survival” value ([4]; 5.0 mg/kg, 24 h) of the same compound?
A: 93.3%

Q: And the “Galleria Survival” value ([4]; 5.0 mg/kg, 48 h)?
A: 90.0%

Q: And the “Galleria Survival” value ([4]; 5.0 mg/kg, 72 h)?
A: 90.0%

Q: What about the “Galleria Survival” value ([4]; 10.0 mg/kg, 24 h) of the same compound?
A: 93.3%

Q: And the “Galleria Survival” value ([4]; 10.0 mg/kg, 48 h)?
A: 93.3%

Q: And the “Galleria Survival” value ([4]; 10.0 mg/kg, 72 h)?
A: 93.3%

Q: And the MIC (B. contaminans FFH-4004; [10])?
A: 8 µg/mL (≈ 18 µM)

Q: What about the MIC (B. dolosa CEP021; Burkholderia dolosa, CEP021) of the same compound?
A: 16 µg/mL (≈ 36 µM)

Q: And the “Percent survival of C. elegans” value (C. elegans DH26; 4 μg/mL)?
A: 100%

Q: And the “Percent survival of C. elegans” value (C. elegans DH26; 8 μg/mL)?
A: 97.4%

Q: What about the “Percent survival of C. elegans” value (C. elegans DH26; 16 μg/mL) of the same compound?
A: 100%

Q: And the “Percent survival of C. elegans” value (C. elegans DH26; 32 μg/mL)?
A: 98.2%

Q: And the “Percent survival of C. elegans” value (C. elegans DH26; 64 μg/mL)?
A: 100%

Q: And the “Percent survival of C. elegans” value (C. elegans DH26; 128 μg/mL)?
A: 91.5%

Q: What about the “Percent survival of C. elegans” value (C. elegans DH26; 256 μg/mL) of the same compound?
A: 79.5%

Q: And the “Survival100/MIC Ratio” value (C. elegans DH26)?
A: 16

Q: What about the MIC (B. contaminans MF16; Burkholderia contaminans, MF16) of the same compound?
A: 16 µg/mL (≈ 36 µM)

Q: And the MIC (B. cenocepacia 140485; [11])?
A: 1 µg/mL (≈ 2.25 µM)

Q: And the MIC (B. cenocepacia K56-2 [2]; Burkholderia cenocepacia)?
A: 4 µg/mL (≈ 9 µM)

Q: For C[C@@H](O)[C@H]1C(=O)N2C(C(=O)O)=C(S[C@@H]3CN[C@H](C(=O)N(C)C)C3)[C@H](C)[C@H]12 [MEM, meropenem, reference compound], which MIC (B. multivorans ATCC17616; [7]) is on record?
A: 4 µg/mL (≈ 10.4 µM)

Q: What about the MIC [1, 8] of the same compound?
A: 4 µg/mL (≈ 10.4 µM)

Q: And the “persister frequency (percent survival)” value (B. cenocepacia K56-2 [5]; 5× MIC)?
A: low amount of persisters

Q: And the “persister frequency (percent survival)” value (B. cenocepacia K56-2 [5]; 10× MIC)?
A: low amount of persisters

Q: And the “persister frequency (percent survival)” value (B. cenocepacia K56-2 [5]; 5× and 10× MIC tested, concentration not told apart)?
A: 5–7%

Q: And the MIC (B. ubonensis LMG 20358; [9])?
A: 16 µg/mL (≈ 41.7 µM)

Q: And the MIC (B. lata BCC6; Burkholderia lata, BCC6)?
A: 4 µg/mL (≈ 10.4 µM)

Q: And the MIC (B. contaminans FFH-4004; [10])?
A: 8 µg/mL (≈ 20.9 µM)

Q: And the MIC (B. dolosa CEP021; Burkholderia dolosa, CEP021)?
A: 8 µg/mL (≈ 20.9 µM)

Q: What about the “Percent survival of C. elegans” value (C. elegans DH26; 4 μg/mL) of the same compound?
A: 100%

Q: What about the “Percent survival of C. elegans” value (C. elegans DH26; 8 μg/mL) of the same compound?
A: 100%

Q: What about the “Percent survival of C. elegans” value (C. elegans DH26; 16 μg/mL) of the same compound?
A: 100%

Q: And the “Percent survival of C. elegans” value (C. elegans DH26; 32 μg/mL)?
A: 100%

Q: What about the “Percent survival of C. elegans” value (C. elegans DH26; 64 μg/mL) of the same compound?
A: 100%

Q: What about the “Percent survival of C. elegans” value (C. elegans DH26; 128 μg/mL) of the same compound?
A: 97.4%

Q: What about the “Percent survival of C. elegans” value (C. elegans DH26; 256 μg/mL) of the same compound?
A: 93.2%

Q: And the “Survival100/MIC Ratio” value (C. elegans DH26)?
A: 4

Q: What about the “Survival100/MIC Ratio” value (C. elegans DH26; listed as meropenem) of the same compound?
A: four

Q: What about the MIC (B. contaminans MF16; Burkholderia contaminans, MF16) of the same compound?
A: 8 µg/mL (≈ 20.9 µM)

Q: And the MIC (B. cenocepacia 140485; [11])?
A: 16 µg/mL (≈ 41.7 µM)

Q: What about the MIC (B. cenocepacia K56-2 [2]; Burkholderia cenocepacia) of the same compound?
A: 16 µg/mL (≈ 41.7 µM)

Q: What does the source list for NC[C@H]1O[C@H](O[C@H]2[C@H](O)[C@@H](O[C@H]3O[C@H](CO)[C@@H](O)[C@H](N)[C@H]3O)[C@H](N)C[C@@H]2N)[C@H](N)C[C@@H]1O [TOB, tobramycin, reference compound]?
A: MIC (B. multivorans ATCC17616; [7]): 64 µg/mL (≈ 137 µM); MIC [1, 8]: 128 µg/mL (≈ 274 µM); MIC (B. ubonensis LMG 20358; [9]): 128 µg/mL (≈ 274 µM); MIC (B. lata BCC6; Burkholderia lata, BCC6): 128 µg/mL (≈ 274 µM); MIC (B. contaminans FFH-4004; [10]): 64 µg/mL (≈ 137 µM); MIC (B. dolosa CEP021; Burkholderia dolosa, CEP021): 128 µg/mL (≈ 274 µM); MIC (B. contaminans MF16; Burkholderia contaminans, MF16): 32 µg/mL (≈ 68.4 µM); MIC (B. cenocepacia 140485; [11]): 128 µg/mL (≈ 274 µM); MIC (B. cenocepacia K56-2 [2]; Burkholderia cenocepacia): 512 µg/mL (≈ 1100 µM)
